Test results reported in publication PMC11181328 (Journal of Medicinal Chemistry, 2024).
Read-outs that look alike come from different tables or passages of the source.

Tests used:
KOR [1] = target: T1, KOR (Mus musculus, UniProt P33534); test: Competitive radioligand binding assay, KOR; details: for radioligand binding affinity (Ki, nM) KOR: [3H]diprenorphine, mKOR-CHO membranes; for selectivity ratio δ/κ / selectivity ratio μ/κ: ratio of Ki values
T1 construct: expressed in transfected cells; membrane homogenate

DOR [2] = target: T2, DOR (Homo sapiens, UniProt P41143); test: Competitive radioligand binding assay, DOR
T2 construct: expressed in transfected cells; membrane homogenate

KOR [3] = target: T1, KOR; test: [35S]-GTPγS functional assay, KOR; type: biochemical; details: for EC50: mKOR-CHO membranes; for Emax: percent of U50,488 full agonist control
DOR [4] = target: T2, DOR; test: [35S]-GTPγS functional assay, DOR; type: biochemical; details: for EC50: hDOR-CHO membranes; for Emax: percent of SNC80 full agonist control
male Swiss Webster mice [5] = test: Warm-water tail immersion assay, agonism (single dose screen and potency); type: in vivo, mouse; details: for ED50: Mus musculus, sc, read-out: potency ED50 [95% CI] mg/kg, 20 min prior to tail withdrawal latency measurement, male Swiss Webster mice; for ED50 / ED75: s.c.; for ED75: warm-water tail immersion; for percent MPE: single dose 10 mg/kg s.c., withdrawal latency 20 min after administration
male Swiss Webster mice [6] = test: Warm-water tail immersion assay, time course study; type: in vivo, mouse; details: for onset of antinociceptive effects: s.c.
male Swiss Webster mice [7] = test: Warm-water tail immersion assay, receptor selectivity study; type: in vivo, mouse; details: for antagonism of antinociceptive effects by nor-BNI (KOR antagonist) pretreatment: 10 mg/kg nor-BNI s.c. 24 h prior to 0.1 mg/kg test compound s.c. (23 also 0.05 mg/kg); for antagonism of antinociceptive effects by β-FNA (MOR antagonist) pretreatment: 10 mg/kg β-FNA s.c. 24 h prior to 0.1 mg/kg test compound s.c.; for antagonism of antinociceptive effects by NTI (DOR antagonist) pretreatment: 15 mg/kg NTI s.c. 30 min prior to 0.1 mg/kg test compound s.c. (23 also 0.05 mg/kg); for antagonism of antinociceptive effects by NTI and nor-BNI pretreatment together: nor-BNI 10 mg/kg + NTI 15 mg/kg s.c. prior to test compound
[8] = Drug distribution study (brain and plasma, LC-MS/MS); type: in vivo, mouse; details: 0.1 mg/kg s.c.; for Kp at 5 min / Kp at 10 min / Kp at 0.5 h / Kp at 1 h: Swiss Webster, mouse, sc, read-out: B/P (brain-to-plasma concentration ratio); for Kp at 0.5 h: 30 min; for Kp at 1 h: 60 min
Experimental: To examine the potential for these compounds to exert their effects on the central nervous system, a drug distribution study monitoring blood–brain barrier penetration was used. […] Plasma and brain homogenate were then analyzed via liquid chromatography with tandem mass spectrometry (LC-MS/MS) to allow calculation of brain-to-plasma ratios.[78]
The test compound was administered s.c., and a group of Swiss Webster mice was euthanized by decapitation at each time point (5, 10, 30, 60 min post injection) allowing whole brain and blood samples to be harvested. Brain samples were washed with saline to ensure removal of any blood on the isolated brain and were then immersed in 300 μL saline. Blood samples were centrifuged for 10 min (15,000g; 4 °C) to collect plasma. Brain and plasma samples were stored at −80 °C until further analysis.
Identification and quantification of test compound in mouse brain and plasma were performed using a modification of a previously described method with an internal standard of naloxone-d5.[126] Compounds were extracted from both blood and brain by a liquid/liquid extraction. Briefly, brain tissue samples were homogenized 1-part tissue to 3-parts water. Seven-point calibration curves (10–1000 ng/mL or ng/g) in plasma, drug free control, a negative control without internal standard in plasma and brain, and quality control specimens in plasma and brain (30, 300, and 750 ng/mL or ng/g) were prepared and analyzed with each batch of samples. […], was added at 10 ng/mL concentration to aliquots of either 100 μL for blood or 400 μL for brain homogenate to each calibrator, control, or specimen except the negative control. To these samples, 0.5 mL of saturated carbonate/bicarbonate buffer (1:1, pH 9.5) and 2.0 mL of chloroform/2-propanol (8:2) were added. The samples were then mixed and centrifuged. The top, aqueous layer was aspirated, and the organic layer was transferred to a clean test tube and evaporated to dryness under nitrogen. The samples were then reconstituted in 80:[…] and transferred to autosampler vials for analysis. The chromatographic separation of test compounds and naloxone-d5 was accomplished using a Shimadzu Nexera X2 liquid chromatography system and a Zorbax XDB-C18 4.6 × 75 mm, 3.5 μm column (Agilent Technologies, Santa Clara, CA). The mobile phases consisted of (A) water with 1 g/L ammonium formate and 0.1% formic acid, and (B) methanol. The flow rate was set to 1 mL/min. The mobile phase started with 20% B and was increased to 80% B at 1.0 min and held constant for 1.5 min before returning to 20% B. The system detector was a Sciex 6500 QTRAP system with an IonDrive Turbo V source for TurboIonSpray (Sciex, Ontario, Canada) that had the curtain gas flow rate set at 30 mL/min and the ion source gases 1 and 2 at 60 mL/min. The source temperature was set at 650 °C with an ionspray voltage was 5500 V. The declustering potential was 58 eV.
The primary dependent measures are (1) the plasma concentration of the test compound (μg/mL), (2) the brain concentration of the test compound (μg/g), and (3) the brain-to-plasma concentration ratio calculated as [brain]/[plasma]. Concentrations were determined by a linear regression plot based on peak ratios of the calibrators. Data are shown as mean ± SEM. Data were compared using one-way ANOVA as appropriate and a significant ANOVA was followed by a Dunnet’s post hoc test as appropriate. Statistical significance was defined as p < 0.05.

[9] = test system: male and female Sprague–Dawley rats; details: intravenous, FR5 schedule of reinforcement, 2 h sessions
in vitro [10] = details: human, s9
in vitro [11] = details: Sprague-Dawley, rat, s9
MOR [12] = target: T3, MOR (Mus musculus, UniProt P42866); test: Competitive radioligand binding assay, MOR; parameters: expressed in transfected cells; membrane homogenate; details: for radioligand binding affinity (Ki, nM) MOR: [3H]naloxone, mMOR-CHO membranes
MOR [13] = target: T3, MOR; test: [35S]-GTPγS functional assay, MOR; type: biochemical; parameters: expressed in transfected cells; membrane homogenate; details: for EC50: mMOR-CHO membranes; for [35S]-GTPγS functional activity MOR Emax (%): percent of DAMGO full agonist control; for Emax: read-out: [35S]-GTPγS functional activity MOR Emax (%)
[14] = warm water tail immersion studies (Figure 3)

| Compound | Ki (KOR [1]) | radioligand binding affinity (Ki, nM) KOR (KOR [1]) | selectivity ratio δ/κ (KOR [1]) | selectivity ratio μ/κ (KOR [1]) | Ki (DOR [2]) | EC50 (KOR [3]) | Emax (KOR [3]) | EC50 (DOR [4]) | Emax (DOR [4]) | ED50 (male Swiss Webster mice [5]) | ED75 (male Swiss Webster mice [5]) | percent MPE (male Swiss Webster mice [5]) | antinociceptive effects significant until (time postinjection) (male Swiss Webster mice [6]; 0.1 mg/kg s.c.) | onset of antinociceptive effects (male Swiss Webster mice [6]) | duration of action (male Swiss Webster mice [6]; [14]) | antagonism of antinociceptive effects by nor-BNI (KOR antagonist) pretreatment (male Swiss Webster mice [7]) | antagonism of antinociceptive effects by β-FNA (MOR antagonist) pretreatment (male Swiss Webster mice [7]) | antagonism of antinociceptive effects by NTI (DOR antagonist) pretreatment (male Swiss Webster mice [7]) | antagonism of antinociceptive effects by NTI and nor-BNI pretreatment together (male Swiss Webster mice [7]) | time point of highest plasma concentration [8] | further results |
| --- | --- | --- | --- | --- | --- | --- | --- | --- | --- | --- | --- | --- | --- | --- | --- | --- | --- | --- | --- | --- | --- |
| CN(C(=O)/C=C/c1ccco1)[C@H]1CC[C@@]2(O)[C@H]3Cc4ccc(O)c5c4[C@@]2(CCN3CC2CC2)[C@H]1O5.Cl [Compound 21, 17-Cyclopropylmethyl-3,14β-dihydroxy-4,5α-epoxy-6α-[(2E)-3′-(furan-2″-yl)-N-methylprop-2-enamido]morphinan Hydrochloride] | 0.14 ± 0.02 nM | subnanomolar | 7 | 1 | 0.93 ± 0.21 nM | 0.04 nM | 107 ± 2.6% | 1.28 ± 0.28 nM | > 80% | 0.051 mg/kg | 0.1 mg/kg | ≥ 80% | 3 h | approximately 30 min | > 3 h | antagonized | not antagonized by β-FNA | antagonized | seemed to compound the decrease | 5 min | Selectivity Ratio MOR/KOR (KOR [1]; supplement csv): 1.43; radioligand binding affinity (Ki, nM) DOR (DOR [2]; [3H]diprenorphine, hDOR-CHO membranes): subnanomolar; duration of action (male Swiss Webster mice [6]; 0.1 mg/kg s.c.): 3 h; Kp at 5 min ([8]; brain and plasma): 0.027; Kp at 10 min ([8]; brain and plasma): 0.186; Kp at 0.5 h ([8]; brain and plasma): 0.633; Kp at 1 h ([8]; brain and plasma): 0.938; reinforcing effect (number of infusions earned versus saline) [9]: no dose maintained a significant number of infusions earned above saline; half-life (in vitro [10]): > 2 h; microsomal CLint (in vitro [10]): < 5.8 µL/min/mg; half-life at 1 h, 1 µM (in vitro [11]): 1.16 h; microsomal CLint at 1 h, 1 µM (in vitro [11]): 10.1 µL/min/mg; Ki (MOR [12]): 0.2 ± 0.02 nM; radioligand binding affinity (Ki, nM) MOR (MOR [12]): subnanomolar; EC50 (MOR [13]): 0.58 ± 0.17 nM; [35S]-GTPγS functional activity MOR Emax (%) (MOR [13]): low efficacy MOR partial agonism; Emax (MOR [13]): 19.7 ± 0.7% |
| CN(C(=O)/C=C/c1ccco1)[C@@H]1CC[C@@]2(O)[C@H]3Cc4ccc(O)c5c4[C@@]2(CCN3CC2CC2)[C@H]1O5.Cl [Compound 23, 17-Cyclopropylmethyl-3,14β-dihydroxy-4,5α-epoxy-6β-[(2E)-3′-(furan-2″-yl)-N-methylprop-2-enamido]morphinan Hydrochloride] | 0.22 ± 0.03 nM | subnanomolar | 36 | 4 | 7.93 ± 1.02 nM | 0.14 ± 0.02 nM | 106.5 ± 0.7% | 16.4 ± 3.25 nM | > 80% | 0.01 mg/kg | 0.05 mg/kg | ≥ 80% | 6 h | approximately 30 min | > 3 h | slight, nonsignificant decrease | not antagonized by β-FNA | antagonized by NTI | enhanced antagonism | 5 min | antinociceptive effects significant until (time postinjection) (male Swiss Webster mice [6]; 0.05 mg/kg s.c.): 3 h; duration of action (male Swiss Webster mice [6]; 0.5 mg/kg s.c.): 3 h; Kp at 5 min ([8]; brain): 0.05; Kp at 10 min ([8]; brain): 0.762; Kp at 0.5 h ([8]; brain): 0.645; Kp at 1 h ([8]; brain): 1.45; reinforcing effect (number of infusions earned versus saline) [9]: no dose maintained a significant number of infusions earned above saline; half-life (in vitro [10]): > 2 h; microsomal CLint (in vitro [10]): < 5.8 µL/min/mg; half-life (in vitro [11]): > 2 h; microsomal CLint (in vitro [11]): < 5.8 µL/min/mg; Ki (MOR [12]): 0.78 ± 0.05 nM; radioligand binding affinity (Ki, nM) MOR (MOR [12]): subnanomolar; EC50 (MOR [13]): 5.31 ± 0.53 nM; [35S]-GTPγS functional activity MOR Emax (%) (MOR [13]): low efficacy MOR partial agonism; Emax (MOR [13]): 14.2 ± 1.77% |
